According to paper PMC6615261, “Repurposing Azithromycin and Rifampicin Against Gram-Negative Pathogens by Combination With Peptidomimetics” (Frontiers in Cellular and Infection Microbiology, 2019):
Where two headings read alike, the source gives them in different places.

Legend:
[1] = tested on: P. aeruginosa ATCC 27853; assay: MIC by broth microdilution; type: cell-based, Pseudomonas aeruginosa
Method: (§1) Minimal inhibitory concentrations (MICs) of peptidomimetics, antibiotics and their combinations were determined by broth microdilution according to the Clinical Laboratory Standards Institute performance standards (Clinical and Laboratory Standards Institute, [2013]). […] Since rifampicin and azithromycin mainly are used to treat infections with Gram-positive pathogens only CLSI clinical breakpoints were available for such bacteria. […] Potentiation of additional antibiotics by peptidomimetics was determined by using commercial 96-well plates containing varied concentrations of standard antibiotics (COMPAN1F; Trek Diagnostic Systems Inc.). The peptidomimetics were added immediately prior to inoculation with pathogen, and then MICs were determined as above. The MICs of peptidomimetic/antibiotic combinations were determined according to the method above, and the concentration ratios were selected based upon checkerboard results with 2:1 and 1:4 ratio of peptidomimetic with rifampicin or azithromycin, respectively. Minimal bactericidal concentrations (MBCs) were determined by using growth-curve assay plates. MIC plates were prepared as above, and then the plates were incubated at 37°C with continuous shaking. Growth was recorded at 10 min intervals as optical density (OD) at 600 nm during 24 h. At 24 h, for wells without growth, a sample was diluted 10-fold in sterile saline (0.9% sodium chloride) and plated onto MHA, following CLSI guidelines (Clinical and Laboratory Standards Institute, [1999]).

[2] = MTS/PMS cell viability assay; type: cell-based; settings: human, HepG2 hepatocytes, 1 h exposure, read-out: Cytotoxicity HepG2 EC50 ± SD
Method: (§2) NIH 3T3 and HepG2 cells (both from ATCC, Manassas, VA, USA) were cultured in flat-bottomed 96-well MicroWell™ plates (NUNC, Roskilde, Denmark) at seeding densities of ~23,000 and ~22,000 cells/well, respectively, and then cultured for 22–24 h under standard culturing conditions (37°C, 5% CO2, humidified air) to reach 80–90% confluence. NIH 3T3 were cultured in Dulbecco's modified Eagle's medium (DMEM) supplemented with 10% (v/v) newborn-calf serum (NCS) (Gibco, Paisly, UK), while HepG2 were cultured in Eagle's minimum essential medium (EMEM) supplemented with 10% (v/v) fetal bovine serum (FBS, Gibco, Paisly, UK), sodium pyruvate (1 mM), and non-essential amino acids (1%, v/v). Both culturing media were further supplemented with penicillin (100 U/mL), streptomycin (100 μg/mL), and L-glutamine (2 mM).
(§3) Effect on cell viability was determined in NIH 3T3 fibroblasts and HepG2 hepatocytes by using the MTS/PMS assay measuring metabolic activity. Briefly, the adhered cells were washed with 37°C Hanks' balanced salt solution (HBSS from Sigma-Aldrich, St. Louis, MO, USA), containing 10 mM HEPES (AppliChem, Darmstadt, Germany), and adjusted to pH 7.4, and were then exposed for 1 h to 100 μL of test compound(s) dissolved in the appropriate culturing medium without serum for each cell line. After exposure the cells were washed with HBSS containing 10 mM HEPES (pH 7.4) and 100 μL of an MTS/PMS solution, consisting of 240 μg/mL MTS (Promega, Madison, WI, USA) and 2.4 μg/mL PMS (SigmaAldrich, Buchs, Switzerland) in HBSS, was added to the cells, which then were incubated for 1 h at 37°C with horizontal shaking under light protection. Absorbance was measured at 492 nm by using a POLARstar OPTIMA plate reader (BMG Labtech, Offenburg, Germany). The relative viability was calculated according to Equation (1) with absorbance values obtained after incubation of cells with test compound; incubation with SDS (0.2%, w/v in medium) defined 100% cell death (Abspos), while the absorbance of cells incubated with medium defined 0% cell death (Absneg).
(§4) (1) Relative viability(%)=(Abssample-Abspos)/(Absneg-Abspos)×100%
(§5) EC50 values were calculated by using GraphPad Prism 7 (GraphPad Software, La Jolla, CA, USA) via fitting of the relative cell viability to the concentration of the test compound by using Equation (2):
(§6) (2) Relative viability(%)= Top-Bottom/1+10^(LogIC50-Log[peptidomimetic]) ×Hill slope
(§7) With top and bottom representing the mean highest and lowest observed values, respectively. The Hill slope represents a factor for the steepness of the linear part of the curve. In order to prevent erroneous calculation, the top and bottom values were constrained to 100 and 0%, respectively. Data were collected from technical triplicates. The selectivity index was calculated as the average effect on cell viability (EC50 values for HepG2 and NIH 3T3 cells) divided by the MIC.

[3] = tested on: K. pneumoniae ST258; assay: Screening of peptidomimetic-antibiotic combinations (growth / growth inhibition); type: cell-based, Klebsiella pneumoniae; set-up: key to Growth in combination with RIF / Growth in combination with AZM: Growth (+); growth inhibition (–)
[4] = tested on: K. pneumoniae ST258; assay: MIC by broth microdilution; type: cell-based, Klebsiella pneumoniae
Method: as §1

[5] = MTS/PMS cell viability assay; type: cell-based, mouse; settings: mouse, NIH 3T3 fibroblasts, 1 h exposure, read-out: Cytotoxicity NIH 3T3 EC50 ± SD
Method: as §2, §3, §4, §5, §6, §7

[6] = tested on: E. coli ST131; assay: MIC by broth microdilution; type: cell-based, Escherichia coli
Method: as §1

[7] = tested on: MDR E. coli ST131; assay: Screening of peptidomimetic-antibiotic combinations (growth / growth inhibition); type: cell-based, Escherichia coli; set-up: key to Growth in combination with RIF / Growth in combination with AZM: Growth (+); growth inhibition (–)
[8] = tested on: pro-inflammatory effect of LPS; set-up: method as in Skovbakke et al., 2015; settings: at 1 μM; ref Skovbakke et al., 2015; cited from earlier work
[9] = tested on: K. pneumoniae ST258
Outline: (§8)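 Two-dimensional checkerboard broth microdilution in MHB II, with twofold dilutions of peptidomimetic and antibiotic on crossed axes and 18–20 h incubation per CLSI. FICI = MICA(A+B)/MICA(alone) + MICB(A+B)/MICB(alone); ≤0.5 is interpreted as synergy.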

[10] = tested on: E. coli ST131
Outline: as §8

[11] = tested on: P. aeruginosa ATCC 27853
Outline: as §8

[12] = average of EC50 (HepG2, NIH 3T3) divided by MIC
[13] = peptidomimetic 0.5 μM + azithromycin 1 μg/mL
[14] = peptidomimetic 0.5 μM + rifampicin 0.5 μg/mL
[15] = MIC of azithromycin combined with the labelled peptidomimetic
[16] = MIC of rifampicin combined with the labelled peptidomimetic

## CC(=O)N[C@@H](CCCCN)C(=O)N(CCC(=O)N[C@@H](CCCCN)C(=O)N(CCC(=O)N[C@@H](CCCCN)C(=O)N(CCC(=O)N[C@@H](CCCCN)C(=O)N(CCC(=O)N[C@@H](CCCCN)C(=O)N(CCC(=O)N[C@@H](CCCCN)C(=O)N(CCC(N)=O)Cc1ccccc1)Cc1ccccc1)Cc1ccccc1)Cc1ccccc1)Cc1ccccc1)Cc1ccccc1 [Peptidomimetic 14, Ac-(Lys-βNPhe)6-NH2]
[1]; [12]
  Selectivity Index (SI) P. aeruginosa ATCC 27853: (17)
[1]; peptidomimetic alone
  MIC P. aeruginosa ATCC 27853: 16 µM
[2]
  EC50 at 1 h: 234 µM
[3]; [13]
  Growth in combination with AZM: +
[3]; [14]
  Growth in combination with RIF: +
[4]; [12]
  Selectivity Index (SI) K. pneumoniae ST258: (4)
[4]; peptidomimetic alone
  MIC K. pneumoniae ST258: 64 µM
[5]
  EC50 at 1 h: 323 µM
[6]; [12]
  Selectivity Index (SI) E. coli ST131: (70)
[6]; peptidomimetic alone
  MIC E. coli ST131: 4 µM
[7]; [13]
  Growth in combination with AZM: –
[7]; [14]
  Growth in combination with RIF: –
[8]
  Block of the pro-inflammatory effect of LPS: block the pro-inflammatory effect of LPS
[9]; [15]
  Antibiotic MIC in combination (AZM): 4 µg/mL
[9]; [16]
  Antibiotic MIC in combination (RIF): 1 µg/mL
[9]; checkerboard
  Peptidomimetic MIC alone: 64 µM
[10]; [15]
  Antibiotic MIC in combination (AZM): 1 µg/mL
[10]; [16]
  Antibiotic MIC in combination (RIF): 0.25 µg/mL
[10]; checkerboard
  Peptidomimetic MIC alone: 4 µM
[10]; combined with AZM
  Peptidomimetic MIC in combination: 0.25 µM
[10]; combined with RIF
  Peptidomimetic MIC in combination: 0.25 µM
[11]; P. aeruginosa ATCC 27853, MIC of azithromycin combined with the labelled peptidomimetic
  Antibiotic MIC in combination (AZM): 1 µg/mL
[11]; P. aeruginosa ATCC 27853, MIC of rifampicin combined with the labelled peptidomimetic
  Antibiotic MIC in combination (RIF): 1 µg/mL
[11]; P. aeruginosa ATCC 27853, checkerboard
  Peptidomimetic MIC alone: 16 µM
[11]; P. aeruginosa ATCC 27853, combined with AZM
  Peptidomimetic MIC in combination: 4 µM
[11]; P. aeruginosa ATCC 27853, combined with RIF
  Peptidomimetic MIC in combination: 4 µM
[11]; P. aeruginosa, sub-MIC concentrations of peptidomimetic
  Reduction of the MIC of azithromycin: 32- to 512 fold
